From patent US12052991B2, “Substituted pyridinyloxybenzenes and salts thereof and use thereof as herbicidal agents” (Bayer Aktiengesellschaft, priority 2018, dated 2024)

System: Poa annua (POAAN)
Experiment: Herbicidal post-emergence action (Table B3)
Assay type: in vivo
Details: 320 g/ha; rated visually after about 3 weeks; 100% = plants have died, 0% = like control plants
Experimental: (§1) Seeds of mono- and dicotyledonous weed plants were placed in plastic pots in sandy loam soil (doubly sown with in each case one species of mono- or dicotyledonous weed plants per pot), covered with soil and cultivated in a greenhouse under controlled growth conditions. 2 to 3 weeks after sowing, the test plants were treated at the one-leaf stage. The compounds of the invention, formulated in the form of wettable powders (WP) or as emulsion concentrates (EC), were applied onto the green parts of the plants as aqueous suspension or emulsion with addition of 0.5% additive at a water application rate of 600 liters per hectare (converted). After the test plants had been kept in the greenhouse under optimum growth conditions for about 3 weeks, the activity of the preparations was rated visually in comparison to untreated controls. For example, 100% activity=the plants have died, 0% activity=like control plants. Tables B1 to B12 below show the effects of selected compounds of the general formula (I) according to Table 1 on various harmful plants and an application rate corresponding to 1280 or 320 g/ha, which were obtained by the experimental procedure mentioned above.

| Compound | Post-emergence action against Poa annua (POAAN) |
| --- | --- |
| Fc1cccc(Oc2ncc(C(F)(F)F)cc2Cl)c1-c1cc(C(F)F)no1 [Example 1-22] | 100% |
| FC(F)c1cc(-c2ccc(Br)cc2Oc2ccc(Cl)cn2)on1 [Example 1-62] | 100% |

Same assay, conditions: 1280 g/ha; rated visually after about 3 weeks; 100% = plants have died, 0% = like control plants

| Compound | Post-emergence action against Poa annua (POAAN) |
| --- | --- |
| Fc1cccc(Oc2ncc(C(F)(F)F)cc2Cl)c1-c1cc(C(F)F)no1 [Example 1-22] | 100% |
| FC(F)c1cc(-c2ccc(Br)cc2Oc2ccc(Cl)cn2)on1 [Example 1-62] | 100% |

System: Setaria viridis (SETVI)
Experiment: Herbicidal pre-emergence action, test C (Table C4)
Assay type: in vivo
Details: dosage 1280 g/ha; visual scoring after about 3 weeks; 100% = plants have died, 0% = like control plants
Excerpt: (§2) Seeds of mono- and dicotyledonous weed plants were placed in plastic pots in sandy loam soil (doubly sown with one species each of mono- or dicotyledonous weed plants per pot) and covered with soil. The compounds of the invention, formulated in the form of wettable powders (WP) or as emulsion concentrates (EC), were then applied onto the surface of the covering soil as aqueous suspension or emulsion with addition of 0.5% additive at a water application rate of 600 liters per hectare (converted). After the treatment, the pots were placed in a greenhouse and kept under good growth conditions for the test plants. After about 3 weeks, the effect of the preparations was scored visually in comparison with untreated controls as percentages. For example, 100% activity=the plants have died, 0% activity=like control plants. Tables C1 to C12 below show the effects of selected compounds of the general formula (I) according to Table 1 on various harmful plants and an application rate corresponding to 1280 or 320 g/ha, which were obtained by the experimental procedure mentioned above.

| Compound | Pre-emergence action against Setaria viridis (SETVI) |
| --- | --- |
| Fc1cccc(Oc2ncc(C(F)(F)F)cc2Cl)c1-c1cc(C(F)F)no1 [Example 1-22] | 90% |
| FC(F)c1cc(-c2ccc(Br)cc2Oc2ccc(Cl)cn2)on1 [Example 1-62] | 100% |

System: Amaranthus retroflexus (AMARE)
Experiment: Herbicidal post-emergence action (Table B6)
Assay type: in vivo
Details: dosage 320 g/ha; visual rating about 3 weeks after treatment; 100% = plants have died, 0% = like control plants
Experimental: as §1

| Compound | Post-emergence action against Amaranthus retroflexus (AMARE) |
| --- | --- |
| FC(F)c1cc(-c2ccc(Br)cc2Oc2ccc(Cl)cn2)on1 [Example 1-62] | 100% |

Same assay, conditions: dosage 1280 g/ha; visual rating about 3 weeks after treatment; 100% = plants have died, 0% = like control plants

| Compound | Post-emergence action against Amaranthus retroflexus (AMARE) |
| --- | --- |
| FC(F)c1cc(-c2ccc(Br)cc2Oc2ccc(Cl)cn2)on1 [Example 1-62] | 100% |

System: Stellaria media (STEME)
Experiment: Herbicidal pre-emergence action, test C (Table C8)
Assay type: in vivo
Details: dosage 320 g/ha; visual scoring after about 3 weeks; 100% = plants have died, 0% = like control plants
Excerpt: as §2

| Compound | Pre-emergence action against Stellaria media (STEME) |
| --- | --- |
| Fc1cccc(Oc2ncc(C(F)(F)F)cc2Cl)c1-c1cc(C(F)F)no1 [Example 1-22] | 90% |

Same assay, conditions: dosage 1280 g/ha; visual scoring after about 3 weeks; 100% = plants have died, 0% = like control plants

| Compound | Pre-emergence action against Stellaria media (STEME) |
| --- | --- |
| Fc1cccc(Oc2ncc(C(F)(F)F)cc2Cl)c1-c1cc(C(F)F)no1 [Example 1-22] | 100% |

System: harmful plants ABUTH, AMARE, ECHCG, LOLRI, MATIN, POAAN, SETVI, STEME, ALOMY, DIGSA, KCHSC and VERPE
Experiment: Herbicidal pre-emergence action (test C), summary of Tables C1-C12
Assay type: in vivo
Details: application rate of 1280 or 320 g of active ingredient per hectare; summary in words
Excerpt: as §2, with “percentages.” for “percentages. For example, 100% activity=the plants have died, 0% activity=like control plants. Tables C1 to C12 below show the effects of selected compounds of the general formula (I) according to Table 1 on various harmful plants and an application rate corresponding to 1280 or 320 g/ha, which were obtained by the experimental procedure mentioned above.”
(§3) For example, 100% activity=the plants have died, 0% activity=like control plants.
Tables C1 to C12 below show the effects of selected compounds of the general formula (I) according to Table 1 on various harmful plants and an application rate corresponding to 1280 or 320 g/ha, which were obtained by the experimental procedure mentioned above.
As the results of Tables C1-C12 show, compounds no.

| Compound | herbicidal activity against the harmful plants of Tables C1-C12 in pre-emergence treatment |
| --- | --- |
| Fc1cccc(Oc2ncc(C(F)(F)F)cc2Cl)c1-c1cc(C(F)F)no1 [Example 1-22] | very good herbicidal activity |
| FC(F)c1cc(-c2ccc(Br)cc2Oc2ccc(Cl)cn2)on1 [Example 1-62] | very good herbicidal activity |

System: Veronica persica (VERPE)
Experiment: Herbicidal post-emergence action (Table B12)
Assay type: in vivo
Details: dosage 320 g/ha; visual rating about 3 weeks after treatment; 100% = plants have died, 0% = like control plants
Experimental: as §1

| Compound | Post-emergence action against Veronica persica (VERPE) |
| --- | --- |
| FC(F)c1cc(-c2ccc(Br)cc2Oc2ccc(Cl)cn2)on1 [Example 1-62] | 100% |

Same assay, conditions: dosage 1280 g/ha; visual rating about 3 weeks after treatment; 100% = plants have died, 0% = like control plants

| Compound | Post-emergence action against Veronica persica (VERPE) |
| --- | --- |
| FC(F)c1cc(-c2ccc(Br)cc2Oc2ccc(Cl)cn2)on1 [Example 1-62] | 100% |

System: Abutilon theophrasti (ABUTH)
Experiment: Herbicidal post-emergence action (Table B5)
Assay type: in vivo
Details: 320 g/ha; rated visually after about 3 weeks; 100% = plants have died, 0% = like control plants
Experimental: as §1

| Compound | Post-emergence action against Abutilon theophrasti (ABUTH) |
| --- | --- |
| FC(F)c1cc(-c2ccc(Br)cc2Oc2ccc(Cl)cn2)on1 [Example 1-62] | 100% |

Same assay, conditions: 1280 g/ha; rated visually after about 3 weeks; 100% = plants have died, 0% = like control plants

| Compound | Post-emergence action against Abutilon theophrasti (ABUTH) |
| --- | --- |
| Fc1cccc(Oc2ncc(C(F)(F)F)cc2Cl)c1-c1cc(C(F)F)no1 [Example 1-22] | 100% |
| FC(F)c1cc(-c2ccc(Br)cc2Oc2ccc(Cl)cn2)on1 [Example 1-62] | 100% |

System: Digitaria sanguinalis (DIGSA)
Experiment: Herbicidal pre-emergence action, test C (Table C10)
Assay type: in vivo
Details: dosage 1280 g/ha; visual scoring after about 3 weeks; 100% = plants have died, 0% = like control plants
Excerpt: as §2

| Compound | Pre-emergence action against Digitaria sanguinalis (DIGSA) |
| --- | --- |
| FC(F)c1cc(-c2ccc(Br)cc2Oc2ccc(Cl)cn2)on1 [Example 1-62] | 100% |

System: harmful plants ABUTH, AMARE, ECHCG, LOLRI, MATIN, POAAN, SETVI, STEME, ALOMY, DIGSA, KCHSC and VERPE
Experiment: Herbicidal post-emergence action, summary of Tables B1-B12
Assay type: in vivo
Details: application rate of 1280 or 320 g of active ingredient per hectare; summary in words
Experimental: as §1, with “controls.” for “controls. For example, 100% activity=the plants have died, 0% activity=like control plants. Tables B1 to B12 below show the effects of selected compounds of the general formula (I) according to Table 1 on various harmful plants and an application rate corresponding to 1280 or 320 g/ha, which were obtained by the experimental procedure mentioned above.”
as §3
Tables B1 to B12 below show the effects of selected compounds of the general formula (I) according to Table 1 on various harmful plants and an application rate corresponding to 1280 or 320 g/ha, which were obtained by the experimental procedure mentioned above.
As the results of Tables B1-B12 show, compounds no.

| Compound | herbicidal activity against the harmful plants of Tables B1-B12 in post-emergence treatment |
| --- | --- |
| Fc1cccc(Oc2ncc(C(F)(F)F)cc2Cl)c1-c1cc(C(F)F)no1 [Example 1-22] | very good herbicidal activity |
| FC(F)c1cc(-c2ccc(Br)cc2Oc2ccc(Cl)cn2)on1 [Example 1-62] | very good herbicidal activity |

System: Abutilon theophrasti (ABUTH)
Experiment: Herbicidal pre-emergence action, test C (Table C5)
Assay type: in vivo
Details: dosage 1280 g/ha; visual scoring after about 3 weeks; 100% = plants have died, 0% = like control plants
Excerpt: as §2

| Compound | Pre-emergence action against Abutilon theophrasti (ABUTH) |
| --- | --- |
| FC(F)c1cc(-c2ccc(Br)cc2Oc2ccc(Cl)cn2)on1 [Example 1-62] | 90% |

System: Veronica persica (VERPE)
Experiment: Herbicidal pre-emergence action, test C (Table C12)
Assay type: in vivo
Details: dosage 1280 g/ha, visual scoring vs untreated controls
Excerpt: as §2

| Compound | Pre-emergence action against Veronica persica (VERPE) |
| --- | --- |
| FC(F)c1cc(-c2ccc(Br)cc2Oc2ccc(Cl)cn2)on1 [Example 1-62] | 90% |

System: Poa annua (POAAN)
Experiment: Herbicidal pre-emergence action, test C (Table C3)
Assay type: in vivo
Details: dosage 320 g/ha; visual scoring after about 3 weeks; 100% = plants have died, 0% = like control plants
Excerpt: as §2

| Compound | Pre-emergence action against Poa annua (POAAN) |
| --- | --- |
| FC(F)c1cc(-c2ccc(Br)cc2Oc2ccc(Cl)cn2)on1 [Example 1-62] | 90% |

Same assay, conditions: dosage 1280 g/ha; visual scoring after about 3 weeks; 100% = plants have died, 0% = like control plants

| Compound | Pre-emergence action against Poa annua (POAAN) |
| --- | --- |
| Fc1cccc(Oc2ncc(C(F)(F)F)cc2Cl)c1-c1cc(C(F)F)no1 [Example 1-22] | 100% |
| FC(F)c1cc(-c2ccc(Br)cc2Oc2ccc(Cl)cn2)on1 [Example 1-62] | 100% |

System: Stellaria media (STEME)
Experiment: Herbicidal post-emergence action (Table B8)
Assay type: in vivo
Details: dosage 1280 g/ha; visual rating about 3 weeks after treatment; 100% = plants have died, 0% = like control plants
Experimental: as §1

| Compound | Post-emergence action against Stellaria media (STEME) |
| --- | --- |
| FC(F)c1cc(-c2ccc(Br)cc2Oc2ccc(Cl)cn2)on1 [Example 1-62] | 100% |

System: Amaranthus retroflexus (AMARE)
Experiment: Herbicidal pre-emergence action, test C (Table C6)
Assay type: in vivo
Details: dosage 320 g/ha; visual scoring after about 3 weeks; 100% = plants have died, 0% = like control plants
Excerpt: as §2

| Compound | Pre-emergence action against Amaranthus retroflexus (AMARE) |
| --- | --- |
| FC(F)c1cc(-c2ccc(Br)cc2Oc2ccc(Cl)cn2)on1 [Example 1-62] | 90% |

Same assay, conditions: dosage 1280 g/ha; visual scoring after about 3 weeks; 100% = plants have died, 0% = like control plants

| Compound | Pre-emergence action against Amaranthus retroflexus (AMARE) |
| --- | --- |
| Fc1cccc(Oc2ncc(C(F)(F)F)cc2Cl)c1-c1cc(C(F)F)no1 [Example 1-22] | 100% |
| FC(F)c1cc(-c2ccc(Br)cc2Oc2ccc(Cl)cn2)on1 [Example 1-62] | 100% |
